# PubChem BioAssay (NCI)
# Values joined by “and” are separate entries in the source; they are usually repeats but may differ in a detail not shown here. Equal values may be shown once.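 Protocol summary: plate cells (96-well), add compound at 5 concentrations, incubate 48 h, interpolate endpoints linearly. GI50 marks 50% less growth. At the TGI there is no net growth.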
# Assays:
# Assay in all cases: growth of human tumour cells (NCI), 48 h
# A498 renal = test system: A498 renal
# HT29 colon = test system: HT29 colon
# K-562 leukemia = test system: K-562 leukemia
# MOLT-4 leukemia = test system: MOLT-4 leukemia
# SNB-19 CNS = test system: SNB-19 CNS
# BT-549 breast = test system: BT-549 breast
# MDA-MB-435 = test system: MDA-MB-435
# NCI/ADR-RES ovarian = test system: NCI/ADR-RES ovarian
# PC-3 prostate = test system: PC-3 prostate
# SR leukemia = test system: SR leukemia
Structure (SMILES),GI50 (A498 renal) [µM],TGI (A498 renal) [µM],GI50 (HT29 colon) [µM],TGI (HT29 colon) [µM],GI50 (K-562 leukemia) [µM],TGI (K-562 leukemia) [µM],GI50 (MOLT-4 leukemia) [µM],TGI (MOLT-4 leukemia) [µM],GI50 (SNB-19 CNS),TGI (SNB-19 CNS),GI50 (BT-549 breast) [µM],TGI (BT-549 breast) [µM],GI50 (MDA-MB-435) [µM],TGI (MDA-MB-435) [µM],GI50 (NCI/ADR-RES ovarian) [µM],TGI (NCI/ADR-RES ovarian) [µM],GI50 (PC-3 prostate) [µM],TGI (PC-3 prostate) [µM],GI50 (SR leukemia) [µM],TGI (SR leukemia) [µM]
[Cl-].[Gd+3].[O-]/N=C(\c1ccccc1)c1ccccn1.[O-]/N=C(\c1ccccc1)c1ccccn1.[O-]/N=C(\c1ccccc1)c1ccccn1,> 100,> 100,44.9,> 100,65,> 100,40.5,> 100,93.2 µM,> 100 µM,,,,,,,,,,
O=C(c1ccccc1)C(Br)C(Br)c1ccccc1 (stereo not given),12.8,25.5,,,,,,,12.7 µM,25.7 µM,12.8,25.6,2.91,11.2,2.92,9.55,18.3,33.4,,
N/C(=N\C(N)=N\c1nc2ccccc2s1)c1cnccn1,1.45,3.89,2.87,> 100,3.69,> 100,3.48,> 100,3.57 µM,41.6 µM,3.97,96,,,4.28,> 100,3.78,> 100,4.32,> 100
COC(=O)CC1CC2(C(=O)OC)c3[nH]c4ccccc4c3CCN2C1=O (stereo not given),,> 100,,> 100,,> 100,,> 100,,> 100 µM,,,,,,,,,,> 100
O=C(Nc1ccc(C(F)(F)F)cc1[N+](=O)[O-])c1cccnc1,,> 100,,,,> 100,,> 100,,> 100 µM,,> 100,,2.5,,> 100,,,,> 100
NC(=O)c1ncn(C2OC(CO)C(O)C2O)c1N (stereo not given),> 100,> 100,> 100,> 100,,,,,> 100 µM,> 100 µM,> 100,> 100,> 100,> 100,> 100,> 100,> 100,> 100,,
c1cncc(C2ONC3=NCCN32)c1 (stereo not given),16.6,40.2,35.1,> 100,35.6,> 100,28.4,56.6,69.7 µM,> 100 µM,22.9,70,50.8,> 100,22.1,80.4,30.8,> 100,,
COc1cc2cc3c(c(O)c2c(O)c1-c1c(OC)cc2cc4c(c(O)c2c1O)C(=O)O[C@H](C)C4)C(=O)O[C@H](C)C3,,,37.5,> 100,> 100,> 100,> 100,> 100,32.3 µM,99.2 µM,,,17.8,33.8,37.2,> 100,35.8,> 100,70.6,> 100
COC(=O)[C@]1(C)CCC[C@]2(C)[C@@H]1CCC13C[C@@H](C=CO1)[C@@H](C)CC32O (stereo not given in full),,,11,> 100,36.7,> 100,24.5,> 100,> 100 µM,> 100 µM,> 100,> 100,23.9,> 100,> 100,> 100,38,> 100,17.1,> 100
C=C(Cn1c2ccccc2c(=O)c2ccccc21)c1ccc(C(=O)Nc2ccccc2N)cc1,,> 27.2,2.52,> 33.6,1.35,> 100,0.767,> 26,,> 100 µM,4.07,> 100,,,2.31,> 100,0.761,> 100,0.605,2.25
CC1=CCN(c2ccccn2)OC1c1ccccc1 (stereo not given),,,,> 100,,> 100,,> 100,,> 100 µM,,,,,,,,,,> 100
O=c1[nH]c2ccc([N+](=O)[O-])c(Cl)c2c2ccccc12,,80.2,,10.6,,> 100,,31.8,,10.5 µM,,21.2,,7.6,,> 100,,,,7.59
O=C(N/N=C/c1ccc(F)cc1)c1ccc(C(F)(F)F)nc1Nc1cccc(C(F)(F)F)c1,1.59,4.65,2.02,5.23,1.07,5.02,1.57,5.5,1.51 µM,7.99 µM,,,2.66,10,1.28,6.58,,,0.426,2.4
CCOc1ccc(Nc2nc(-c3c(C)nc4ncccn34)cs2)cc1,< 0.01,0.0678,,,< 0.01,> 100,0.0539,20.4,0.0538 µM,23.5 µM,0.0268,14.9,,,< 0.01,29.1,0.0185,17.5,0.0153,19.7
Nc1nc(=S)[nH]c(C(=O)Nc2nccs2)c1-c1ccccc1,,> 100,,> 100,,> 100,,> 100,,> 100 µM,,,,,,,,,,> 100
C=C1CC/C=C(\C)CC[C@H](C(=C)C)[C@@H](O)/C=C(/CO)CCC1O (stereo not given in full),> 100,> 100,> 100,> 100,24.5,69.7,24,53.6,> 100 µM,> 100 µM,48.2,> 100,40.5,> 100,> 100,> 100,43.4,> 100,,
O=C1CNN=C(Cn2nc(-c3ccccc3)c3ccccc3c2=O)N1,,> 100,,> 100,,> 100,,> 100,,> 100 µM,,,,,,,,,,> 100
COc1ccc(Cc2nc3cc(OC)c(OC)cc3c(=O)[nH]2)cc1,18.6,66.9,4.73,> 100,34.3,> 100,5.36,> 59.6,7.23 µM,> 100 µM,4.84,29.7,5.15,57.1,12.4,59,22,> 100,,
O=C(/C=C(\[O-])c1ccccc1)CCCCCCC(=O)/C=C(\[O-])c1ccccc1.O=C(/C=C(\[O-])c1ccccc1)CCCCCCC(=O)/C=C(\[O-])c1ccccc1.O=C(/C=C(\[O-])c1ccccc1)CCCCCCC(=O)/C=C(\[O-])c1ccccc1.[Nd+3].[Nd+3],> 50,> 50,> 50,> 50,> 50,> 50,27.5,> 50,> 50 µM,> 50 µM,,,,,,,,,,
Nc1ccc(C(=O)/C=C/c2ccccc2O)cc1,,> 100,,> 100,,> 100,,> 100,,> 100 µM,,,,,,,,,,> 100
COCC1N=C(c2cc(OC)c(OC)c(OC)c2-c2cc3c(cc2[C@H](C)O)OCO3)O[C@H]1c1ccccc1 (stereo not given in full),,,,> 100,,> 10,,> 100,,> 100 µM,,,,,,,,,,

Structure (SMILES),GI50 (A498 renal) [µM],TGI (A498 renal) [µM],GI50 (HT29 colon) [µM],TGI (HT29 colon) [µM],GI50 (K-562 leukemia) [µM],TGI (K-562 leukemia) [µM],GI50 (MOLT-4 leukemia) [µM],TGI (MOLT-4 leukemia) [µM],GI50 (SNB-19 CNS),TGI (SNB-19 CNS),GI50 (BT-549 breast) [µM],TGI (BT-549 breast) [µM],GI50 (MDA-MB-435) [µM],TGI (MDA-MB-435) [µM],GI50 (NCI/ADR-RES ovarian) [µM],TGI (NCI/ADR-RES ovarian) [µM],GI50 (PC-3 prostate) [µM],TGI (PC-3 prostate) [µM],GI50 (SR leukemia) [µM],TGI (SR leukemia) [µM]
N#CCCN(CCC#N)c1ccc(C=Nc2ccc(F)cc2)cc1,,> 100,,> 100,,> 100,,> 100,,> 100 µM,,> 100,,> 100,,,,> 100,,> 100
COc1cc(OC)cc(-c2ccc(-c3ccc(C(=N)N)cn3)s2)c1,,,2.11,4.89,2.22,6.19,2.55,6.39,1.8 µM,3.59 µM,10.5,26.4,1.73,3.15,3.27,11.6,1.88,3.63,3.51,10.9
O=c1cccccc1[O-].O=c1cccccc1[O-].O=c1cccccc1[O-].[Sm+3],87.5,> 100,,> 100,,> 100,,> 100,,> 100 µM,,,,,,,,,,
CC(=O)OCC1OC(n2c(=S)n(-c3ccccc3)c(=O)c3cc(Br)cc(Br)c32)C(OC(C)=O)C(OC(C)=O)C1OC(C)=O (stereo not given),,> 100,,> 100,,> 100,36.8,> 100,28.5 µM and 71.1 µM,85.5 µM and > 100 µM,,,,,,,,,> 100,> 100
COc1cc(CCc2ccc(OC(C)=O)cc2)cc(OC)c1OC,,> 100,,> 100,,> 100,,> 100,,> 100 µM,,,,,,,,,,
CN(C)c1ccc(O[Si](Oc2ccc(N(C)C)cc2)(Oc2ccc(N(C)C)cc2)Oc2ccc(N(C)C)cc2)cc1,,> 100,,> 100,,> 100,,> 100,,> 100 µM,,,,,,,,,,> 100
CCOc1ccccc1NC(=O)C1=C(C)NC(C)=C(C(=O)Nc2ccccc2OCC)C1c1ccc([N+](=O)[O-])cc1,,> 100,,> 100,,,,,,> 100 µM,,,,,,,,,,> 100
CC(=O)[O-].[Mn+3].[O-]c1ccc(Cl)cc1C=NCCN=Cc1cc(Cl)ccc1[O-],> 100,> 100,> 100,> 100,> 100,> 100,> 100,> 100,> 100 µM,> 100 µM,,,,,,,,,,
COC(=O)C1CCC(=O)N1/C(C)=N/NC(=O)Nc1ccc(Cl)c(Cl)c1 (stereo not given),,> 100,,,,> 100,,> 100,,> 100 µM,,,,,,,,,,> 100
NNC(=O)N/N=C1\CN(c2ccc(Cl)cc2Cl)C(=O)C(=O)C1c1nc2ccccc2o1 (stereo not given),,> 100,,> 100,,> 100,,> 100,,> 100 µM,,,,,,,,,,> 100
COc1ccc2c(c1)[n+](=O)c(C(C)=O)c(C)n2[O-],,,,> 100,,> 100,,> 100,,> 100 µM,,,,,,,,,,
COc1ccc(C(=O)O/N=C2/CCCCC2CN(C)C)cc1 (stereo not given),,> 100,,> 100,,> 100,,> 100,,,,,,,,,,,,> 100
O=C(C(=O)c1cc(Br)ccc1O)c1cc(Br)ccc1O,,,14.6,> 100,2.82,> 100,3.28,19.9,4.39 µM,> 100 µM,,,2.84,9.25,3.36,> 100,3.13,15.7,3.15,53.2
COC(=O)c1sc(=NC(=S)N2CCCCC2)sc1C(=O)OC,,> 100,,,,> 100,,> 100,,> 100 µM,,,,,,,,,,> 100
c1ccc2c3c([nH]c2c1)C1C2CCCCN2C(c2ccncc2)N1CC3 (stereo not given),,,,> 100,,> 100,,> 100,,65.3 µM,,,,,,,,,,> 100
COc1ccc(-c2cc(-c3ccco3)c(C#N)c(=O)[nH]2)cc1,,> 100,,> 100,,> 100,,> 100,,> 100 µM,,,,,,,,,,
CN(C)c1ccc(C2CC(C)(O)Oc3cc4c(cc32)OCO4)cc1 (stereo not given),,,,76.1,,> 100,,> 100,,> 100 µM,,,,74.1,,> 100,,> 100,,> 100
OCC(O)C(O)C(O)C(O)c1nn[nH]n1 (stereo not given),,,,> 100,,> 100,,> 100,,,,,,,,,,,,> 100
COc1ccc(/C(C)=C(\c2ccc(Cl)cc2)c2ccc(OCCN3CCCCCC3)cc2)cc1F,,,0.611,> 16.7,0.828,16.4,3.91,11.8,5.13 µM,> 16.7 µM,2.79,6.74,2.78,5.77,4,12.4,3.8,15,2.26,12.3
Cc1nc(-n2nc(-c3ccccc3)cc2-c2ccccc2)sc1C(=O)/C=C/c1ccccc1,,> 100,,> 100,,> 100,,> 100,,> 100 µM,,,,,,,,,,
C/C(CC(=O)Nc1cccc([N+](=O)[O-])c1)=N\NC(=O)C[n+]1ccccc1,,,,> 100,,,,> 100,,,,,,,,,,,,
